These results are taken from patent US10023570B2 (Array BioPharma, Inc., priority 2015, dated 2018).

The term IC50 denotes the concentration needed to halve the response being measured. High values mean lower potency, low ones higher potency.

Each structure is given as a SMILES string.

human KDR protein in HEK-293 cells, sequence (P35968 20-1356): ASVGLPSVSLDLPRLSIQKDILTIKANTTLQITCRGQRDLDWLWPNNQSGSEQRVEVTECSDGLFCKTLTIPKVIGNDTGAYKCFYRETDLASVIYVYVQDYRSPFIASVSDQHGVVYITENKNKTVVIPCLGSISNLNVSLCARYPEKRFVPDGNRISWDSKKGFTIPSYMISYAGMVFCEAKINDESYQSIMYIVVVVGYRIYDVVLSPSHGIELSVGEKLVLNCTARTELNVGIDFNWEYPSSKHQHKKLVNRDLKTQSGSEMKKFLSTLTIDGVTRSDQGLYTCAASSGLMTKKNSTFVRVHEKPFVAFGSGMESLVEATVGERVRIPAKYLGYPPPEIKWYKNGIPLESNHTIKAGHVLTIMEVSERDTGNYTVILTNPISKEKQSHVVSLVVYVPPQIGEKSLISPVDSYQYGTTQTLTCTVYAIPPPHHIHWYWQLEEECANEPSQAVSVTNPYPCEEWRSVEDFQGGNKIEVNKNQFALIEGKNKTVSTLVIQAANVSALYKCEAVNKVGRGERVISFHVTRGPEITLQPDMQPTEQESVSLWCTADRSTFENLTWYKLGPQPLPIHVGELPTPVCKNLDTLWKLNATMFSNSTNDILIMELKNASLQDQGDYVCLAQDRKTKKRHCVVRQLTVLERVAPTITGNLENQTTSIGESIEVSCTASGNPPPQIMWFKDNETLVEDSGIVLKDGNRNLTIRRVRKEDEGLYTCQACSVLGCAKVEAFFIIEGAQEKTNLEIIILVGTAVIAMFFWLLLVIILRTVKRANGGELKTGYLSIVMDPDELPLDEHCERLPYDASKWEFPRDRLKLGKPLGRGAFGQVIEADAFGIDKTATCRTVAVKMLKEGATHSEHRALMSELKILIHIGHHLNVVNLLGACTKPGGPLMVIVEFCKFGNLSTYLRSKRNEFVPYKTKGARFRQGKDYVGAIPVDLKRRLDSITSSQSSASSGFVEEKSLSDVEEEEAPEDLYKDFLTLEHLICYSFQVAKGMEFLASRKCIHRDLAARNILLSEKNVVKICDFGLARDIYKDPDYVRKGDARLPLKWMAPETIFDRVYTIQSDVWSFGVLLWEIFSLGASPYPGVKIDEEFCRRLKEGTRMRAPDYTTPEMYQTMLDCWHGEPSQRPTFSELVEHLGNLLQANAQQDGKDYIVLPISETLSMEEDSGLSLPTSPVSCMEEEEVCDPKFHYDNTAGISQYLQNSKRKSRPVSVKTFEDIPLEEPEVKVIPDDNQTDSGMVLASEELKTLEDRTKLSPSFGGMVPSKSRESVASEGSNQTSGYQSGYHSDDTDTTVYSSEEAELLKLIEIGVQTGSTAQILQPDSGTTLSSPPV

For one experiment, the target named is human KDR protein in HEK-293 cells (Homo sapiens (Human), UniProt P35968). In words: KDR Cell Assay (phospho-KDR in HEK-293 cells expressing inducible KDR). Type of experiment: cell-based. The conditions noted are these: pKDR Cell HEK 10% FBS IC50, HEK-293 cells expressing inducible KDR, VEGF stimulated. In a few lines:
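HEK-293 cells with inducible human KDR were treated with compound for 1 h in DMEM (0.25% DMSO final), then lysed. Phospho-KDR was quantified by Meso Scale immunoassay, expressed as percent of control, and IC50 taken where a 4-parameter logistic fit crossed 50 POC.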
As to `Cn1cc(-c2cc(-c3ccc(N4CCC5(CC4)CN(C(=O)C4CCC4)C5)nc3)c3c(C#N)cnn3c2)cn1` [Example 493, 4-(6-(2-(cyclobutanecarbonyl)-2,7-diazaspiro[3.5]nonan-7-yl)pyridin-3-yl)-6-(1-methyl-1H-pyrazol-4-yl)pyrazolo[1,5-a]pyridine-3-carbonitrile], half-maximal inhibition (IC50) required 928 nM.

For `Cn1cc(-c2cc(-c3ccc(N4CCN(Cc5nccn5C)CC4)nc3)c3c(C#N)cnn3c2)cn1` [Example 437, 4-(6-(4-((1-methyl-1H-imidazol-2-yl)methyl)piperazin-1-yl)pyridin-3-yl)-6-(1-methyl-1H-pyrazol-4-yl)pyrazolo[1,5-a]pyridine-3-carbonitrile], the IC50 is 1970 nM. As for `CCCCN(C(=O)N1CCN(c2ccc(-c3cc(-c4cnn(C)c4)cn4ncc(C#N)c34)cn2)CC1)c1ccccc1` [Example 377, N-butyl-4-(5-(3-cyano-6-(1-methyl-1H-pyrazol-4-yl)pyrazolo[1,5-a]pyridin-4-yl)pyridine-2-yl)-N-phenylpiperazine-1-carboxamide], the IC50 worked out at 2030 nM. The molecule `Cn1cc(-c2cc(-c3ccc(N4CCC(Cc5ccccc5)CC4)nc3)c3c(C#N)cnn3c2)cn1` [Example 535, 4-(6-(4-benzylpiperidin-l-yl)pyridin-3-yl)-6-(1-methyl-1H-pyrazol-4-yl)pyrazolo[1,5-a]pyridine-3-carbonitrile] showed an IC50 of 374 nM. On the same count and under the same terms, in the case of `Cn1cc(-c2cc(-c3ccc(N4CCN(C(=O)N5CC6CC6C5)CC4)nc3)c3c(C#N)cnn3c2)cn1` (centres unmarked) [Example 380, 4-(6-(4-(3-azabicyclo[3.1.0]hexane-3-carbonyl)piperazin-1-yl)pyridin-3-yl)-6-(1-methyl-1H-pyrazol-4-yl)pyrazolo[1,5-a]pyridine-3-carbonitrile] it was 555 nM; in that of `CCN1CCN(c2ccc(-c3cc(-c4cnn(C)c4)cn4ncc(C#N)c34)cn2)CC1` [Example 409, 4-(6-(4-ethylpiperazin-1-yl)pyridin-3-yl)-6-(1-methyl-1H-pyrazol-4-yl)pyrazolo[1,5-a]pyridine-3-carbonitrile], 1670 nM; in that of `Cn1cc(-c2cc(-c3ccc(N4CCN(Cc5ccccc5)CC4)nc3)c3c(C#N)cnn3c2)c(C2CC2)n1` [Example 619, 4-(6-(4-benzylpiperazin-1-yl)pyridin-3-yl)-6-(3-cyclopropyl-1-methyl-1H-pyrazol-4-yl)pyrazolo[1,5-a]pyridine-3-carbonitrile], not below 5000 nM. `Cn1cc(-c2cc(-c3ccc(N4CCN(Cc5cc(F)ccc5F)CC4)nc3)c3c(C#N)cnn3c2)cn1` [Example 429, 4-(6-(4-(2,5-difluorobenzyl)piperazin-1-yl)pyridin-3-yl)-6-(1-methyl-1H-pyrazol-4-yl)pyrazolo[1,5-a]pyridine-3-carbonitrile] registered an IC50 of 1560 nM. Still for that read-out and setting: in the case of `Cn1cc(-c2cc(-c3ccc(N4CCC5(CC4)CN(C(=O)C4CCCCC4)C5)nc3)c3c(C#N)cnn3c2)cn1` [Example 495, 4-(6-(2-(cyclohexanecarbonyl)-2,7-diazaspiro[3.5]nonan-7-yl)pyridin-3-yl)-6-(1-methyl-1H-pyrazol-4-yl)pyrazolo[1,5-a]pyridine-3-carbonitrile] it was 771 nM.

The experiment is the same for the next values; noted with them: pKDR Cell HEK 10% FBS IC50, HEK-293 cells expressing inducible KDR, VEGF stimulated, 10% FBS.
With `CO[C@H]1C[C@H]2CC[C@@H](C1)N2c1ccc(-c2cc(-c3cnn(C)c3)cn3ncc(C#N)c23)cn1` [Example 200, 4-(6-((1R,3r,5S)-3-methoxy-8-azabicyclo[3.2.1]octan-8-yl)pyridin-3-yl)-6-(1-methyl-1H-pyrazol-4-yl)pyrazolo[1,5-a]pyridine-3-carbonitrile], the 50% inhibitory concentration (IC50) stood at 463 nM.

Turning to `Cn1cc(-c2cc(-c3ccc(N4CCN(C(=O)N5CCCC5(C)C)CC4)nc3)c3c(C#N)cnn3c2)cn1` [Example 124, 4-(6-(4-(2,2-dimethylpyrrolidine-1-carbonyl)piperazin-1-yl)pyridin-3-yl)-6-(1-methyl-1H-pyrazol-4-yl)pyrazolo[1,5-a]pyridine-3-carbonitrile], the IC50 is 1860 nM. Still for that read-out and setting: under `Cn1cc(C(=O)N2CCN(c3ccc(-c4cc(-c5cnn(C)c5)cn5ncc(C#N)c45)cn3)CC2)cn1` [Example 35, 6-(1-methyl-1H-pyrazol-4-yl)-4-(6-(4-(1-methyl-1H-pyrazole-4-carbonyl)piperazin-1-yl)pyridin-3-yl)pyrazolo[1,5-a]pyridine-3-carbonitrile 2,2,2-trifluoroacetate] stands 437 nM; under `Cn1cc(-c2cc(-c3ccc(N4CCN(C(=O)Cc5ccc(OC(F)(F)F)cc5)CC4)nc3)c3c(C#N)cnn3c2)cn1` [Example 357, 6-(1-methyl-1H-pyrazol-4-yl)-4-(6-(4-(2-(4-(trifluoromethoxy)phenyl)acetyl)piperazin-1-yl)pyridin-3-yl)pyrazolo[1,5-a]pyridine-3-carbonitrile 2,2,2-trifluoroacetate], 2040 nM; under `Cn1cc(-c2cc(-c3ccc(N4CCN(C(=O)N5CC[C@@H](F)C5)CC4)nc3)c3c(C#N)cnn3c2)cn1` [Example 103, (R)-4-(6-(4-(3-fluoropyrrolidine-1-carbonyl)piperazin-1-yl)pyridin-3-yl)-6-(1-methyl-1H-pyrazol-4-yl)pyrazolo[1,5-a]pyridine-3-carbonitrile], 848 nM. `Cn1cc(-c2cc(-c3ccc(N4CCN(C(=O)C5(c6ccc(Cl)cc6Cl)CC5)CC4)nc3)c3c(C#N)cnn3c2)cn1` [Example 343, 4-(6-(4-(1-(2,4-dichlorophenyl)cyclopropanecarbonyl)piperazin-1-yl)pyridin-3-yl)-6-(1-methyl-1H-pyrazol-4-yl)pyrazolo[1,5-a]pyridine-3-carbonitrile] displayed an IC50 of 1660 nM. On the same count and under the same terms, under `Cn1cc(-c2cc(-c3ccc(N4CCC(C(=O)NC5CC(F)(F)C5)CC4)nc3)c3c(C#N)cnn3c2)cn1` [Example 238, 1-(5-(3-cyano-6-(1-methyl-1H-pyrazol-4-yl)pyrazolo[1,5-a]pyridin-4-yl)pyridin-2-yl)-N-(3,3-difluorocyclobutyl) piperidine-4-carboxamide] stands 420 nM; under `Cn1cc(-c2cc(-c3ccc(N4CCN(C[C@H](O)c5ccccc5)CC4)nc3)c3c(C#N)cnn3c2)cn1` [Example 161, (R)-4-(6-(4-(2-hydroxy-2-phenylethyl)piperazin-1-yl)pyridin-3-yl)-6-(1-methyl-1H-pyrazol-4-yl)pyrazolo[1,5-a]pyridine-3-carbonitrile], 48.5 nM; under `CC(C)[C@@H](O)C(=O)N1CCC2(CCN(c3ccc(-c4cc(-c5cnn(C)c5)cn5ncc(C#N)c45)cn3)CC2)C1` [Example 206, (R)-4-(6-(2-(2-hydroxy-3-methylbutanoyl)-2,8-diazaspiro[4.5]decan-8-yl)pyridin-3-yl)-6-(1-methyl-1H-pyrazol-4-yl)pyrazolo[1,5-a]pyridine-3-carbonitrile], 1200 nM. As to `CC(C)[C@@H](O)C(=O)N1CCN(c2ncc(-c3cc(-c4cnn(C)c4)cn4ncc(C#N)c34)cn2)CC1` [Example 285, (R)-4-(2-(4-(2-hydroxy-3-methylbutanoyl)piperazin-1-yl)pyrimidin-5-yl)-6-(1-methyl-1H-pyrazol-4-yl)pyrazolo[1,5-a]pyridine-3-carbonitrile], the IC50 worked out at 1710 nM. Still for that read-out and setting: under `Cn1cc(-c2cc(-c3ccc(N4CCN(C(=O)[C@H](O)Cc5ccccc5)CC4)nc3)c3c(C#N)cnn3c2)cn1` [Example 9, (R)-4-(6-(4-(2-hydroxy-3-phenylpropanoyl)piperazin-1-yl)pyridin-3-yl)-6-(1-methyl-1H-pyrazol-4-yl)pyrazolo[1,5-a]pyridine-3-carbonitrile] stands 32.7 nM; under `Cc1cc(-c2cc(-c3cnn(C)c3)cn3ncc(C#N)c23)cnc1N1CCN(C(=O)[C@H](O)c2ccccc2)CC1` [Example 278, (R)-4-(6-(4-(2-hydroxy-2-phenylacetyl)piperazin-1-yl)-5-methylpyridin-3-yl)-6-(1-methyl-1H-pyrazol-4-yl)pyrazolo[1,5-a]pyridine-3-carbonitrile], 138 nM. On the same count and under the same terms, under `CC(C)CS(=O)(=O)N1CCN(c2ccc(-c3cc(-c4cnn(C)c4)cn4ncc(C#N)c34)cn2)CC1` [Example 90, 4-(6-(4-(isobutylsulfonyl)piperazin-1-yl)pyridin-3-yl)-6-(1-methyl-1H-pyrazol-4-yl)pyrazolo[1,5-a]pyridine-3-carbonitrile] stands 24.1 nM; under `Cn1cc(-c2cc(-c3ccc(N4CCC(NC(=O)[C@@H]5CCCO5)CC4)nc3)c3c(C#N)cnn3c2)cn1` [Example 182, (5)-N-(1-(5-(3-cyano-6-(1-methyl-1H-pyrazol-4-yl)pyrazolo[1,5-a]pyridin-4-yl)pyridin-2-yl)piperidin-4-yl)tetrahydrofuran-2-carboxamide], 563 nM; under `Cn1cc(-c2cc(-c3cnc(N4CCN(C(=O)[C@H](O)c5ccccc5)CC4)cn3)c3c(C#N)cnn3c2)cn1` [Example 288, (R)-4-(5-(4-(2-hydroxy-2-phenylacetyl)piperazin-1-yl)pyrazin-2-yl)-6-(1-methyl-1H-pyrazol-4-yl)pyrazolo[1,5-a]pyridine-3-carbonitrile], 1940 nM. In turn, `Cc1cc(-c2cc(-c3ccc(N4CCN(C(=O)CC(C)(C)C)CC4)cc3)c3c(C#N)cnn3c2)n[nH]1` [Example 310, 4-(4-(4-(3,3-dimethylbutanoyl)piperazin-1-yl)phenyl)-6-(5-methyl-1H-pyrazol-3-yl)pyrazolo[1,5-a]pyridine-3-carbonitrile] had an IC50 of 1760 nM.

For the molecule `Cc1nn(C)cc1C(=O)N1CCN(c2ccc(-c3cc(-c4cnn(C)c4)cn4ncc(C#N)c34)cn2)CC1` [Example 41, 4-(6-(4-(1,3-dimethyl-1H-pyrazole-4-carbonyl)piperazin-1-yl)pyridin-3-yl)-6-(1-methyl-1H-pyrazol-4-yl)pyrazolo[1,5-a]pyridine-3-carbonitrile 2,2,2-trifluoroacetate], it took 871 nM to reach half-maximal inhibition (IC50).
